According to ChEMBL document CHEMBL3232737, “Synthesis and in vitro evaluation of small-molecule [18F] labeled gonadotropin-releasing hormone (GnRH) receptor antagonists as potential PET imaging agents for GnRH receptor expression” (Bioorg Med Chem Lett, 2014):
pKi: −log10 of the molar value.

Legend:
[1] = target: T1, Gonadotropin-releasing hormone receptor (Rattus norvegicus, UniProt P30969); assay: Displacement of [125I]Triptorelin from rat full-length gonadotropin-releasing hormone receptor expressed in HEK293 cells; assay type: cell-based
T1 sequence (P30969 whole entry): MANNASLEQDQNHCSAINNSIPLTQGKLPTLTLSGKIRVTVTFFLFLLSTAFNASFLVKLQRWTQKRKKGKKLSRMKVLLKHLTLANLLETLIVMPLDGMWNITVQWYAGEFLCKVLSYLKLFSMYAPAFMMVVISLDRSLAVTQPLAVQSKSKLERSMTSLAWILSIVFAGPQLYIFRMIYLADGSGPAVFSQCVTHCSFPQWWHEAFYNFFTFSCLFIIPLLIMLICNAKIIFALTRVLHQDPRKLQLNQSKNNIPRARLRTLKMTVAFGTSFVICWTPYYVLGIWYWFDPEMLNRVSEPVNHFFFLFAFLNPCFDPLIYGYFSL

[2] = Octanol-PBS partition coefficient, log P of the compound at 10 kBq at pH 7.4 by gamma counting analysis; assay type: physicochemical
[3] = target: T2, Gonadotropin-releasing hormone receptor (Homo sapiens, UniProt P30968); assay: Binding affinity to human gonadotropin-releasing hormone receptor by radioligand displacement assay
T2 sequence (P30968 whole entry): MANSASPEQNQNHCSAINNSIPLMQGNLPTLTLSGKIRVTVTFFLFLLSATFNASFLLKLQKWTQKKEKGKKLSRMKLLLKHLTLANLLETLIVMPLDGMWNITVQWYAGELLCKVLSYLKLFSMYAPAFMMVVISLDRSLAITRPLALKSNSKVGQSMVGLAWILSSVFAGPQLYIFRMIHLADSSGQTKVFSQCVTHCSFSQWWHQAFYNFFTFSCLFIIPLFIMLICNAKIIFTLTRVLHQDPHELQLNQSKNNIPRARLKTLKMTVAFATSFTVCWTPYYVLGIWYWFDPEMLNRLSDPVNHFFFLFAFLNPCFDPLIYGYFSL

[4] = target: T3, Gonadotropin-releasing hormone receptor (Mus musculus, UniProt Q01776); assay: Binding affinity to mouse gonadotropin-releasing hormone receptor by radioligand displacement assay
T3 sequence (Q01776 whole entry): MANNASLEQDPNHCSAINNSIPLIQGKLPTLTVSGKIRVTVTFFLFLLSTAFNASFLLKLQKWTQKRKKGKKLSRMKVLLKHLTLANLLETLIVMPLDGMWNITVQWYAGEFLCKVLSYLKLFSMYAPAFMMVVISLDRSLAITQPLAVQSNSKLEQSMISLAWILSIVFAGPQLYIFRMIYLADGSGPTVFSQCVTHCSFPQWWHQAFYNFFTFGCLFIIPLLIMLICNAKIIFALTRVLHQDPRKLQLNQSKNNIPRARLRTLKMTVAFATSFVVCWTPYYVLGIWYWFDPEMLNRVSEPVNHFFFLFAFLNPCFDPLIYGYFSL

With COc1nc(F)nc(OC)c1NC(=O)c1ccc(Oc2cc3c(cc2C)CCC3(C)C)o1 as the molecule, how does the pKi [1] read?
The pKi was 7.38.

With COc1nc(OCCF)nc(OC)c1NC(=O)c1ccc(Oc2cc3c(cc2C)CCC3(C)C)o1 as the molecule, how does the pKi [1] read?
The pKi was 8.87.

With COc1nc(OCC[18F])nc(OC)c1NC(=O)c1ccc(Oc2cc3c(cc2C)CCC3(C)C)o1 as the molecule, how does the logD [2] read?
The logD was 1.74.

With COc1cc(OC)c(NC(=O)c2ccc(Cc3cc4c(cc3C)C(C)(C)CCC4(C)C)o2)c(OC)c1 as the molecule, how does the pKi [3] read?
The pKi was 8.22.

What about the pKi [4] of the same molecule?
The pKi was 8.66.
